Numbers after ± are expanded uncertainties.
Experiment: Solid-liquid equilibrium temperature
Settings: Crystal

c1ccccc1 [benzene]
Solid-liquid equilibrium temperature (100000 kPa): 306.44 ± 1.6 K | Solid-liquid equilibrium temperature (200000 kPa): 329.93 ± 1.8 K | Solid-liquid equilibrium temperature (300000 kPa): 351.25 ± 2 K | Solid-liquid equilibrium temperature (400000 kPa): 370.85 ± 2.2 K | Solid-liquid equilibrium temperature (500000 kPa): 389.07 ± 2.3 K | Solid-liquid equilibrium temperature (600000 kPa): 406.15 ± 2.5 K | Solid-liquid equilibrium temperature (700000 kPa): 422.25 ± 2.6 K | Solid-liquid equilibrium temperature (800000 kPa): 437.52 ± 2.8 K | Solid-liquid equilibrium temperature (900000 kPa): 452.06 ± 2.9 K | Solid-liquid equilibrium temperature (1000000 kPa): 465.96 ± 3.1 K | Solid-liquid equilibrium temperature (1500000 kPa): 538.73 ± 10 K | Solid-liquid equilibrium temperature (2000000 kPa): 584.85 ± 10 K | Solid-liquid equilibrium temperature (2500000 kPa): 625.73 ± 10 K | Solid-liquid equilibrium temperature (3000000 kPa): 663.67 ± 10 K

Brc1ccccc1 [bromobenzene]
Solid-liquid equilibrium temperature (100000 kPa): 259.05 ± 1.3 K | Solid-liquid equilibrium temperature (200000 kPa): 276.45 ± 1.5 K | Solid-liquid equilibrium temperature (300000 kPa): 292.45 ± 1.7 K | Solid-liquid equilibrium temperature (400000 kPa): 310.05 ± 1.8 K | Solid-liquid equilibrium temperature (500000 kPa): 322.55 ± 1.9 K | Solid-liquid equilibrium temperature (600000 kPa): 336.15 ± 2 K | Solid-liquid equilibrium temperature (700000 kPa): 349.25 ± 2.2 K | Solid-liquid equilibrium temperature (800000 kPa): 361.85 ± 2.3 K | Solid-liquid equilibrium temperature (900000 kPa): 374.75 ± 2.4 K | Solid-liquid equilibrium temperature (1000000 kPa): 382.85 ± 10 K | Solid-liquid equilibrium temperature (1500000 kPa): 430.05 ± 10 K | Solid-liquid equilibrium temperature (2000000 kPa): 473.67 ± 10 K | Solid-liquid equilibrium temperature (2500000 kPa): 514.22 ± 10 K | Solid-liquid equilibrium temperature (3000000 kPa): 553.94 ± 10 K | Solid-liquid equilibrium temperature (3500000 kPa): 587.21 ± 10 K

Clc1ccccc1 [chlorobenzene]
Solid-liquid equilibrium temperature (100000 kPa): 246.4 ± 1.2 K | Solid-liquid equilibrium temperature (200000 kPa): 263.03 ± 1.4 K | Solid-liquid equilibrium temperature (300000 kPa): 273.46 ± 1.5 K | Solid-liquid equilibrium temperature (400000 kPa): 288.44 ± 1.7 K | Solid-liquid equilibrium temperature (500000 kPa): 301.03 ± 1.8 K | Solid-liquid equilibrium temperature (600000 kPa): 315.62 ± 1.9 K | Solid-liquid equilibrium temperature (700000 kPa): 325.56 ± 2 K | Solid-liquid equilibrium temperature (800000 kPa): 336.87 ± 2.1 K | Solid-liquid equilibrium temperature (900000 kPa): 348.81 ± 2.2 K | Solid-liquid equilibrium temperature (1000000 kPa): 354.76 ± 10 K | Solid-liquid equilibrium temperature (1500000 kPa): 403.44 ± 10 K | Solid-liquid equilibrium temperature (2000000 kPa): 440.81 ± 10 K | Solid-liquid equilibrium temperature (2500000 kPa): 473.28 ± 10 K | Solid-liquid equilibrium temperature (3000000 kPa): 503.63 ± 10 K | Solid-liquid equilibrium temperature (3500000 kPa): 530.87 ± 10 K

O=[N+]([O-])c1ccccc1 [nitrobenzene]
Solid-liquid equilibrium temperature (100000 kPa): 299.74 ± 1.5 K | Solid-liquid equilibrium temperature (200000 kPa): 320.77 ± 1.7 K | Solid-liquid equilibrium temperature (300000 kPa): 340.02 ± 1.9 K | Solid-liquid equilibrium temperature (400000 kPa): 360.41 ± 2.1 K | Solid-liquid equilibrium temperature (500000 kPa): 378.61 ± 2.3 K | Solid-liquid equilibrium temperature (600000 kPa): 395.9 ± 2.4 K | Solid-liquid equilibrium temperature (700000 kPa): 412.3 ± 2.6 K | Solid-liquid equilibrium temperature (800000 kPa): 427.24 ± 2.7 K | Solid-liquid equilibrium temperature (900000 kPa): 442.98 ± 2.9 K | Solid-liquid equilibrium temperature (1000000 kPa): 462.61 ± 10 K | Solid-liquid equilibrium temperature (1500000 kPa): 516.38 ± 10 K | Solid-liquid equilibrium temperature (2000000 kPa): 565.62 ± 10 K | Solid-liquid equilibrium temperature (2500000 kPa): 595.88 ± 10 K | Solid-liquid equilibrium temperature (3000000 kPa): 614.38 ± 10 K
